What was measured:
[1] = system: Powdery Mildew (PM), Uncinula Necator; assay: First year grape vine spray test (Thompson Seedless grapes); assay type: in vivo; details: summary of first year test
Source text: The objective of this study was to test the affect of capsicum on Powdery Mildew (PM), Uncinula Necator and Downey Mildew (DM), Plasmopara Viticola and its destruction of the grape vine, leaves, flag shoots, shoots and bunches. Grape varieties are susceptible to powdery mildew and Downey mildew, Thompson's Seedless grapes was used as a test subject.
Treatment began in the beginning of the season onto fruiting bodies (Cleistothecia) and the early stage of bud growth (3 to 5 inches). Later treatment was applied again, after about 3 weeks when there was new bud growth. When the fruits were about the size of small peas, treatment is once again applied to the bunches. Treatment was also planned to be administered if symptoms of fungal infections arose.
• Kalsec brand water soluble; Code #01-050-02-01 • MasterTaste brand oil soluble; Code 500087, Lot #059618
The grape vineyard to be treated is located at 19521 American Ave., Kerman Calif.,—Thompson Seedless grapes—NW corner. (Block 5B). Vines were sprayed with standard spray equipment (bottles). The spray was applied at approximately one foot away from the plants and vines. The spray was applied at an application rate of about ½ the usual spray application from a standard tractor rig. The budding fruit was sprayed along with the leaves and new budding growth. The spray was administered from the sides only. […]

[2] = cited from earlier work

COc1cc(CNC(=O)CCCC/C=C/C(C)C)ccc1O [Capsaicin, N-vanillyl-8-methyl-6-(E)-noneamide]
effect on growth of mildew on grape vines [1]: hinders or kills the growth of mildew | solubility in alcohol ([2]; alcohol): soluble | solubility in cold water ([2]; cold water): insoluble | solubility in fats, oils and alcohol ([2]; fats, oils and alcohol): very soluble | solubility in water ([2]; water): sparingly soluble

Source: US20100159042A1, “CAPSICUM BASED MILDEW KILLING SOLUTION AND METHOD OF USE” (priority 2008, published 2010)
